{"source": "patent US20030145348A1", "about": "“Dehydroquinate dehydrase/shikimate dehydrogenase as a herbicide target” (priority 2000, published 2003)", "key": {"shikimate dehydrogenase": {"tested_on": "shikimate dehydrogenase", "conditions": "cited from earlier work"}, "[1]": {"biological_target": "dehydroquinate dehydratase/shikimate dehydrogenase (Nicotiana tabacum, UniProt Q6PUF9)", "sequence (Q6PUF9 entry or part of it)": "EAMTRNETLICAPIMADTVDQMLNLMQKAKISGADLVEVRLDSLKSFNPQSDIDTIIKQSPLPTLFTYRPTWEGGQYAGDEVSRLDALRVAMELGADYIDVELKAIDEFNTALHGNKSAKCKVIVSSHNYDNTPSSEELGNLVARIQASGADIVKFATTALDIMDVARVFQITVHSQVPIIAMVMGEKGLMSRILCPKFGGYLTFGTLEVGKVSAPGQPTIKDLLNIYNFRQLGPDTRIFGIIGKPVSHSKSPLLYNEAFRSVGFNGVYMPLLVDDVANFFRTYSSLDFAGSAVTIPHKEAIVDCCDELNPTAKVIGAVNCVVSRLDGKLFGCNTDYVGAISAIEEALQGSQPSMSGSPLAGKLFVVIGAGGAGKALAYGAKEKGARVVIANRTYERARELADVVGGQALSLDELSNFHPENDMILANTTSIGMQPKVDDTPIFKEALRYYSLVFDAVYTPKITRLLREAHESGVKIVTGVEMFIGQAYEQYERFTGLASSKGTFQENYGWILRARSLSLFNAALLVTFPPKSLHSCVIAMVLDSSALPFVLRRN", "test": "shikimate dehydrogenase activity assay of Example 5A (NADPH formation, OD 334 nm)", "type": "biochemical", "conditions": "0.1 mM shikimate, 0.1 mM NADP, pH 9.9", "procedure": "A. The shikimate dehydrogenase of the bifunctional dehydroquinate dehydratase/shikimate dehydrogenase enzyme catalyzes the following reaction:\nshikimate+NADP ? dehydroshikimate+NADPH\nThe formation of NADPH can be measured over 10 minutes at an OD of 334 nm. The reaction is started by adding 1 microliter of the extracted crude protein. The reaction buffer contains:\n100 mM glycine-NaOH, pH: 9.9;\n0.1 mM shikimate (Sigma);\nThe full-length dehydroquinate dehydratase/shikimate dehydrogenase gene was cloned into the pQE vector (FIG. 7) and transformed into E. coli. A single colony of this E. coli strain was incubated overnight at 37° C. in the growth medium “2xYT” (per liter: Bacto tryptone 16 g, yeast extract 10 g, NaCl 5 g, 50 mg/l ampicillin and 50 mg/l kanamycin). Next day, 50 ml of 2*YT were inoculated with 0.5 ml of the overnight culture and grown at 25° C. to an OD600 of 0.6. Gene expression was induced by addition of IPTG (final concentration: 0.05 mM) and incubation was continued for 3 hours at 25° C. The cells were harvested at 4° C. by centrifugation for 10 minutes at 8000 rpm. The pellet was taken up in 3 ml of extraction buffer (50 mM NaH2PO4, 300 mM NaCl, 10 mM imidazole, 15% glycerol, 5 mM mercaptoethanol). The pellet was frozen in liquid nitrogen and again defrosted on ice. The cells were disrupted by sonication (4×45 seconds, 1 minute on ice). The cells were spun down for 20 minutes at 4° C. and 1500 rpm, and the supernatent was used directly for the enzyme measurements.\nSix substances whose IC50 value is in the μM range were identified in a comprehensive screening based on the activity assay described in Example 5A (see Table 1)."}, "[2]": {"tested_on": "duckweed Lemna paucicostatag", "test": "Lemna test, chlorophyll fluorescence", "type": "in vivo, Lemna minor", "design": "key: A herbicidal effect can be detected by comparison with an untreated control; it is identified in Table 1 by the symbol H", "conditions": "chlorophyll fluorescence vs untreated control; 5 mmol/l in DMSO diluted 1:5 in water, 25 μl in 0.5 ml nutrient solution", "procedure": "The effect of the herbicidal compounds according to the invention on the growth of the duckweed Lemna paucicostatag is evident from the following test results:\nLemna minor was grown under nonsterile conditions in Petri dishes in 17 mmol/l MES buffer pH 5.5+1.5 mmol/l CaCl—2+1 g/l “Hakaphos spezial”.\nTo carry out the test, the Lemna cultures are washed and singled out into 0.5 ml of fresh nutrient solution in 48-well microtiter plates. The active ingredients are dissolved in DMSO at a concentration of 5 mmol/l and diluted 1:5 in water. 25 μl of this solution are used in the test.\nThe parameter measured is the fluorescence of the chlorophyll during the treatment. A herbicidal effect can be detected by comparison with an untreated control; it is identified in Table 1 by the symbol H."}, "[3]": {"biological_target": "T1, dehydroquinate dehydratase (Escherichia coli, UniProt P05194)", "T1 sequence (P05194 1-252)": "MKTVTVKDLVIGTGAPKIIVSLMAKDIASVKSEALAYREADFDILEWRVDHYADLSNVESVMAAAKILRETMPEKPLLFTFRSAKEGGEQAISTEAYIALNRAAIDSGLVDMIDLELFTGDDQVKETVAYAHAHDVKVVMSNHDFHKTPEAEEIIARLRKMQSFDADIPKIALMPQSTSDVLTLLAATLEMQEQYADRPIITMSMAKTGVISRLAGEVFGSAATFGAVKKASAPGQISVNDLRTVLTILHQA", "conditions": "in Escherichia coli; cited from earlier work"}}}
{"compound": "O=S(=O)([O-])[O-].[Cd+2]", "note": "[CdSO4]", "values": [{"measurement": "inhibitory effect on shikimate dehydrogenase", "setting": "shikimate dehydrogenase", "value": "inhibitory effect"}]}
{"compound": "O=S(=O)([O-])[O-].[Cu+2]", "note": "[CuSO4]", "values": [{"measurement": "inhibitory effect on shikimate dehydrogenase", "setting": "shikimate dehydrogenase", "value": "inhibitory effect"}]}
{"compound": "[Cu+2]", "note": "[Cu^2+]", "values": [{"measurement": "inhibitory effect on shikimate dehydrogenase", "setting": "shikimate dehydrogenase", "value": "inhibitory effect"}]}
{"compound": "[Cl][Hg][Cl]", "note": "[HgCl2]", "values": [{"measurement": "inhibitory effect on shikimate dehydrogenase", "setting": "shikimate dehydrogenase", "value": "inhibitory effect"}]}
{"compound": "[Hg+2]", "note": "[Hg^2+]", "values": [{"measurement": "inhibitory effect on shikimate dehydrogenase", "setting": "shikimate dehydrogenase", "value": "inhibitory effect"}]}
{"compound": "CCN1C(=O)C=CC1=O", "note": "[N-ethylmaleimides]", "values": [{"measurement": "inhibitory effect on shikimate dehydrogenase", "setting": "shikimate dehydrogenase", "value": "inhibitory effect"}]}
{"compound": "O=c1[nH]c2ccccc2c(=O)n1CCN1CC2C[C@@H](c3cccc(Cl)c3)C2C1", "note": "(stereo partly shown) [No. 1]", "values": [{"measurement": "IC50", "setting": "[1]", "value": 20, "unit": "µM"}, {"measurement": "Effect (herbicidal effect on growth of Lemna)", "setting": "[2]", "value": "H"}]}
{"compound": "O=C(NNC(=O)c1sc2ccccc2c1Cl)Nc1cccc(Cl)c1", "note": "[No. 2]", "values": [{"measurement": "IC50", "setting": "[1]", "value": 23, "unit": "µM"}, {"measurement": "Effect (herbicidal effect on growth of Lemna)", "setting": "[2]", "value": "H"}]}
{"compound": "CC(=N\\O)/C(=N/Nc1ccc(S(C)(=O)=O)cc1)c1ccc(Cl)cc1", "note": "[No. 3]", "values": [{"measurement": "IC50", "setting": "[1]", "value": 7, "unit": "µM"}, {"measurement": "Effect (herbicidal effect on growth of Lemna)", "setting": "[2]", "value": "H"}]}
{"compound": "O=C(Nc1c(Cl)cc(Cl)cc1Cl)c1cccc(O)c1O", "note": "[No. 5]", "values": [{"measurement": "IC50", "setting": "[1]", "value": 3, "unit": "µM"}, {"measurement": "Effect (herbicidal effect on growth of Lemna)", "setting": "[2]", "value": "H"}]}
{"compound": "COc1cc(C(=S)N[C@H]2CC[C@@H](C(C)(C)C)CC2)ccc1OC(C)=O", "note": "[No. 6]", "values": [{"measurement": "IC50", "setting": "[1]", "value": 11, "unit": "µM"}, {"measurement": "Effect (herbicidal effect on growth of Lemna)", "setting": "[2]", "value": "H"}]}
{"compound": "[Cl-].[Cl-].[Zn+2]", "note": "[ZnCl2]", "values": [{"measurement": "inhibitory effect on shikimate dehydrogenase", "setting": "shikimate dehydrogenase", "value": "inhibitory effect"}]}
{"compound": "[Zn+2]", "note": "[Zn^2+]", "values": [{"measurement": "inhibitory effect on shikimate dehydrogenase", "setting": "shikimate dehydrogenase", "value": "inhibitory effect"}]}
{"compound": "D-(+)-tartrates", "values": [{"measurement": "inhibitory effect on dehydroquinate dehydratase", "setting": "[3]", "value": "inhibitory effect"}]}
{"compound": "acetates", "values": [{"measurement": "inhibitory effect on dehydroquinate dehydratase", "setting": "[3]", "value": "inhibitory effect"}]}
{"compound": "arsenites", "values": [{"measurement": "inhibitory effect on shikimate dehydrogenase", "setting": "shikimate dehydrogenase", "value": "inhibitory effect"}]}
{"compound": "berates", "values": [{"measurement": "inhibitory effect on shikimate dehydrogenase", "setting": "shikimate dehydrogenase", "value": "inhibitory effect"}]}
{"compound": "diethylcarbonates", "values": [{"measurement": "inhibitory effect on dehydroquinate dehydratase", "setting": "[3]", "value": "inhibitory effect"}]}
{"compound": "p-chloromercuribenzoates", "values": [{"measurement": "inhibitory effect on shikimate dehydrogenase", "setting": "shikimate dehydrogenase", "value": "inhibitory effect"}]}
{"compound": "succinates", "values": [{"measurement": "inhibitory effect on dehydroquinate dehydratase", "setting": "[3]", "value": "inhibitory effect"}]}
